Data published in ChEMBL document CHEMBL1158420, “Synthesis, spectral, crystal and antimicrobial studies of biologically potent oxime ethers of nitrogen, oxygen and sulfur heterocycles” (2009).
In brackets after ≈: the same amount, converted by molar mass.

Legend:
Pseudomonas aeruginosa = experiment: Antibacterial activity against Pseudomonas aeruginosa by twofold dilution method; format: functional
Staphylococcus aureus [1] = experiment: Antibacterial activity against Staphylococcus aureus by twofold dilution method; format: functional
[2] = tested on: Salmonella enterica subsp. enterica; experiment: Antibacterial activity against Salmonella typhi by twofold dilution method; format: functional, Salmonella enterica subsp. enterica serovar Typhi
Escherichia coli = experiment: Antibacterial activity against Escherichia coli by twofold dilution method; format: functional
Candida albicans = experiment: Antifungal activity against Candida albicans by twofold dilution method; format: functional
Candida = experiment: Antifungal activity against Candida 51 by twofold dilution method; format: functional
Rhizopus = experiment: Antifungal activity against Rhizopus sp. by twofold dilution method; format: functional
Aspergillus niger = experiment: Antifungal activity against Aspergillus niger by twofold dilution method; format: functional
Aspergillus flavus = experiment: Antifungal activity against Aspergillus flavus by twofold dilution method; format: functional
Cryptococcus neoformans = experiment: Antifungal activity against Cryptococcus neoformans by twofold dilution method; format: functional
Staphylococcus aureus [3] = experiment: Ratio of MIC for drug to MIC for Ciprofloxacin against Staphylococcus aureus; format: functional
[4] = tested on: Salmonella enterica subsp. enterica; experiment: Ratio of MIC for drug to MIC for Ciprofloxacin against Salmonella typhi; format: functional, Salmonella enterica subsp. enterica serovar Typhi
[5] = Staphylococcus aureus, read-out: MIC
[6] = Salmonella enterica, read-out: MIC
[7] = Escherichia coli, read-out: MIC
[8] = Candida albicans, read-out: MIC
[9] = Aspergillus niger, read-out: MIC
[10] = Aspergillus flavus, read-out: MIC
[11] = Cryptococcus neoformans, read-out: MIC
[12] = Pseudomonas aeruginosa, read-out: MIC

SMILES | MIC (Staphylococcus aureus [1]; [5]) [µg/mL] | MIC [2, 6] [µg/mL] | MIC (Escherichia coli; [7]) [µg/mL] | MIC (Candida albicans; [8]) [µg/mL] | MIC (Candida; Candida, 51, read-out: MIC) [µg/mL] | MIC (Rhizopus; Rhizopus, read-out: MIC) [µg/mL] | MIC (Aspergillus niger; [9]) [µg/mL] | MIC (Aspergillus flavus; [10]) [µg/mL] | MIC (Cryptococcus neoformans; [11]) [µg/mL] | MIC (Pseudomonas aeruginosa; [12]) [µg/mL] | other results
CC1C(=NOCc2ccccc2)C(C)C(c2ccccc2)NC1c1ccccc1 (stereo in doubt; 5f1) | 200 (≈ 520 µM) | 100 (≈ 260 µM) | 50 (≈ 130 µM) | 50 (≈ 130 µM) | 50 (≈ 130 µM) | 100 (≈ 260 µM) | 100 (≈ 260 µM) | 200 (≈ 520 µM) | 100 (≈ 260 µM) | – | MIC (Pseudomonas aeruginosa): 50 µg/mL (≈ 130 µM)
CC1C(=NOCc2ccccc2)C(C)C(c2ccc(Cl)cc2)OC1c1ccc(Cl)cc1 (stereo in doubt; 7c1) | 50 (≈ 110 µM) | 50 (≈ 110 µM) | 50 (≈ 110 µM) | – | 50 (≈ 110 µM) | 50 (≈ 110 µM) | 100 (≈ 220 µM) | 50 (≈ 110 µM) | 25 (≈ 55 µM) | 25 (≈ 55 µM) | MIC (Candida albicans): 50 µg/mL (≈ 110 µM)
c1ccc(CON=C2CC(c3ccccc3)NC(c3ccccc3)C2)cc1 (stereo not drawn) | > 200 | 100 (≈ 281 µM) | > 200 | 200 (≈ 561 µM) | 200 (≈ 561 µM) | > 200 | > 200 | 200 (≈ 561 µM) | > 200 | 200 (≈ 561 µM) | –
CC1C(=NOCc2ccccc2)C(C)C(c2ccc(Cl)cc2)OC1c1ccc(Cl)cc1 (stereo in doubt; 7c2) | – | – | – | – | – | – | – | – | – | – | MIC (Pseudomonas aeruginosa): 50 µg/mL (≈ 110 µM); MIC (Staphylococcus aureus [1]): 50 µg/mL (≈ 110 µM); MIC [2]: 100 µg/mL (≈ 220 µM); MIC (Escherichia coli): 50 µg/mL (≈ 110 µM); MIC (Candida albicans): 12.5 µg/mL (≈ 27.5 µM); MIC (Candida): 25 µg/mL (≈ 55 µM); MIC (Rhizopus): 25 µg/mL (≈ 55 µM); MIC (Aspergillus niger): 50 µg/mL (≈ 110 µM); MIC (Aspergillus flavus): 25 µg/mL (≈ 55 µM); MIC (Cryptococcus neoformans): 12.5 µg/mL (≈ 27.5 µM)
O=C(O)c1cn(C2CC2)c2cc(N3CCNCC3)c(F)cc2c1=O [CIPROFLOXACIN] | – | 50 (≈ 151 µM) | 25 (≈ 75.4 µM) | – | – | – | – | – | – | – | –
Clc1ccc(C2CC(=NOCc3ccccc3)CC(c3ccc(Cl)cc3)N2)cc1 (stereo not drawn) | 50 (≈ 118 µM) | 100 (≈ 235 µM) | 50 (≈ 118 µM) | 50 (≈ 118 µM) | 200 (≈ 470 µM) | > 200 | 50 (≈ 118 µM) | 200 (≈ 470 µM) | 100 (≈ 235 µM) | 50 (≈ 118 µM) | –
COc1ccc([C@@H]2CC(=NOCc3ccccc3)C[C@@H](c3ccc(OC)cc3)S2)cc1 | 50 (≈ 115 µM) | 50 (≈ 115 µM) | 50 (≈ 115 µM) | 25 (≈ 57.7 µM) | 25 (≈ 57.7 µM) | 50 (≈ 115 µM) | 25 (≈ 57.7 µM) | 25 (≈ 57.7 µM) | 12.5 (≈ 28.8 µM) | 25 (≈ 57.7 µM) | –
Cc1ccc(C2OC(c3ccc(C)cc3)C(C)C(=NOCc3ccccc3)C2C)cc1 (stereo in doubt; 7d2) | – | – | – | – | – | – | – | – | – | – | MIC (Pseudomonas aeruginosa): 25 µg/mL (≈ 60.5 µM); MIC (Staphylococcus aureus [1]): 25 µg/mL (≈ 60.5 µM); MIC (Escherichia coli): 50 µg/mL (≈ 121 µM); MIC (Candida albicans): 6.25 µg/mL (≈ 15.1 µM); MIC (Candida): 6.25 µg/mL (≈ 15.1 µM); MIC (Rhizopus): 25 µg/mL (≈ 60.5 µM); MIC (Aspergillus niger): 50 µg/mL (≈ 121 µM); MIC (Aspergillus flavus): 25 µg/mL (≈ 60.5 µM); MIC (Cryptococcus neoformans): 25 µg/mL (≈ 60.5 µM)
COc1ccc(C2CC(=NOCc3ccccc3)CC(c3ccc(OC)cc3)N2)cc1 (stereo not drawn) | 50 (≈ 120 µM) | 50 (≈ 120 µM) | 100 (≈ 240 µM) | 100 (≈ 240 µM) | 50 (≈ 120 µM) | 50 (≈ 120 µM) | 100 (≈ 240 µM) | 100 (≈ 240 µM) | 100 (≈ 240 µM) | 50 (≈ 120 µM) | –
c1ccc(CON=C2C[C@@H](c3ccccc3)S[C@H](c3ccccc3)C2)cc1 (relative stereo) | > 200 | 200 (≈ 535 µM) | 200 (≈ 535 µM) | 200 (≈ 535 µM) | > 200 | > 200 | 200 (≈ 535 µM) | 100 (≈ 268 µM) | 200 (≈ 535 µM) | > 200 | –
Cc1ccc(C2OC(c3ccc(C)cc3)C(C)C(=NOCc3ccccc3)C2C)cc1 (stereo in doubt; 7d1) | 12.5 (≈ 30.2 µM) | 25 (≈ 60.5 µM) | 25 (≈ 60.5 µM) | – | – | 50 (≈ 121 µM) | 50 (≈ 121 µM) | 50 (≈ 121 µM) | 50 (≈ 121 µM) | 12.5 (≈ 30.2 µM) | MIC (Candida albicans): 25 µg/mL (≈ 60.5 µM); MIC (Candida): 50 µg/mL (≈ 121 µM); Ratio (Staphylococcus aureus [3]): 2; Ratio [4]: 2
Cc1ccc(C2C/C(=N\OCc3ccccc3)C(C)C(c3ccc(C)cc3)N2)cc1 (stereo not drawn) | 50 (≈ 125 µM) | 100 (≈ 251 µM) | 100 (≈ 251 µM) | 50 (≈ 125 µM) | 50 (≈ 125 µM) | 25 (≈ 62.7 µM) | 100 (≈ 251 µM) | 100 (≈ 251 µM) | 100 (≈ 251 µM) | 50 (≈ 125 µM) | –
CC1/C(=N/OCc2ccccc2)CC(c2ccc(Cl)cc2)NC1c1ccc(Cl)cc1 (stereo not drawn) | 50 (≈ 114 µM) | 50 (≈ 114 µM) | 50 (≈ 114 µM) | 25 (≈ 56.9 µM) | 50 (≈ 114 µM) | 100 (≈ 228 µM) | 50 (≈ 114 µM) | 50 (≈ 114 µM) | 50 (≈ 114 µM) | 25 (≈ 56.9 µM) | –
CC1/C(=N/OCc2ccccc2)CC(c2ccccc2)NC1c1ccccc1 (stereo not drawn) | 200 (≈ 540 µM) | 100 (≈ 270 µM) | 200 (≈ 540 µM) | 100 (≈ 270 µM) | 200 (≈ 540 µM) | 200 (≈ 540 µM) | 200 (≈ 540 µM) | 100 (≈ 270 µM) | > 200 | 200 (≈ 540 µM) | –
